Laboratory results: patent US20040126338A1, “Process of converting trans-lutein into cis-lutein and the uses thereof” (priority 2002, published 2004)

How the values were obtained:
[1] = Persistence of cis-isomers during heating or reflux, normal phase HPLC percent area; format: physicochemical
Protocol: (§1) The solvent solutions are refluxed in the following examples by placing the glass flask on a heating unit. A reflux column, which is cooled by non-recirculating cold water, is attached to the flask. The solution is then heated to the boiling point of the given liquid, except for propylene glycol, which boils at 187° C. The refluxing time varies slightly between solution samples. The refluxing times for each example are stated for each below. Samples are taken periodically to test the concentration of the cis-isomers, these are referred to as collected samples. Similarly, the oil solutions were heated in the following examples by placing the glass flask into a heated oil bath filled with mineral oil, which was stirred constantly, at 72° C.
Storing and centrifuging refers to the collected samples being placed into 12×75 mm glass culture tubes and wrapped with Parafilm® (Pechiney Plastic Packaging) and stored in a freezer until analysis. When prepped for analysis the collected samples are first warmed to room temperature and then the aliquot is centrifuged at 12,000 rpm for 5 minutes to remove trans-isomers crystals. The trans-isomer crystals are removed because the cis-isomers of lutein are known to be more soluble than the trans-isomers, which will allow them to remain in solution once formed. Next 1 ml of the centrifuged collected sample is placed into a High Performance Liquid Chromotography (HPLC) vial for analysis.
Analysis of the solutions formed from lutein and a liquid are analyzed using both normal phase HPLC and a spectophotometer. For the HPLC analysis, 1 ml of the collected sample of each solution is filtered through a 0.45 micron syringe filter into a HPLC sample vial. The sample is first dried using a nitrogen stream and then the remaining solids are dissolved in a 1 ml of a 65:35 hexane:ethylacetate mixture. […] In this way the percent area of the lutein cis-isomer peak is determined.

[2] = cited from earlier work
[3] = system: age-related macular degeneration; conditions: consumption of lutein and zeaxanthin; cited from earlier work
[4] = Room temperature saturation limit and solubility on heating of lutein dry cake in solvents; format: physicochemical; conditions: for Room temp. sataturation limit (%): room temperature
Protocol: The purpose of this preparation is to analyze the effect of heat on a solution of lutein in four solvents, hexane, ethanol, isopropanol, and acetone, to determine whether isomerization from trans-isomers of lutein to various cis-isomers occurs, and what concentration of each isomer is formed. The solutions were prepared using 100 ml of the above stated solvents to dissolve varying weights of lutein dry cake. Initial solubility limits ere tested by adding a small amount of dry cake and swirling the flask briefly. If the sample appeared saturated, it was centrifuged to verify that a pellet of undissolved material was formed. If the solution was not saturated, additional dry cake was added until saturation was reached. Once the approximate solubility at room temperature was determined for each solvent, excess dry cake was added for the increased solubility that occurs through heating and isomerization, in order to maintain saturation during the entire experiment.

[5] = Observed solubility of lutein dry cake in oils; format: physicochemical
Protocol: Using an analytical balance, the preparation of solution for the following examples for cis-isomerization includes placing weighed dry cake lutein into a flask and adding one of the above liquids to the flask to form the solution. The solution is first hand swirled and its solubility is observed. Following a baseline sample, which is taken at the 0 hour mark, the prepared lutein solution is placed on a heat source and refluxed for a period of time ranging between 0-120 hours.
The purpose of this preparation is to analyze the effect of heat on a solution of lutein in the above stated oils and determine whether isomerization from trans-lutein to various cis-isomers occurs, and the concentration of each isomer that is formed. The oils used in this example were corn oil, which was used as a control, corn mint oil, spearmint oil, peppermint oil, tea tree oil, and bay oil. […] The solutions were made by adding 20 ml of oil to the weighed lutein. The sample heated in an oil bath. A baseline 2 ml sample was taken and additional 2 ml samples taken at 1, 4, 8, 24, and 48 hours.
(§2) In this preparation a solution was made using 2 g of lutein dry cake and 20 ml of oil. The solution was heated in an oil bath. Samples (2 ml) were taken at 0, 1, 4, 6.5, 24, and 48 hours. As before, samples were analyzed qualitatively using normal phase HPLC and spectophotometer. However, quantitative analysis was also performed, by taking 1 ml of the HEAT (hexane, ethanol, acetone and toluene) solution previously prepared, diluting it to 25 ml in ethanol, and determining the absorbance on an UV-Vis absorption spectrophotometer. This type of analysis is often useful for quantitative measurements. All of the thyme oil samples required a 1:20 dilution of the ethanol solution before reading on the UV-Vis.
Samples containing 25% solutions were prepared using 2.5 g dry cake lutein and 10 ml of liquid. The liquid used in solution was from the group consisting of corn oil, diH2O, or Spectrum brand white thyme oil. The “dry” sample contained 2.5 g dry cake lutein and was preformed without the addition of any liquid. […]

[6] = Carotenoid content of lutein heated in oils at 72° C., UV-Vis absorbance at 446 nm; format: physicochemical
Protocol: as §1
as §2, with “Samples (2 ml) were taken at 0, 1, 4, 6.5, 24, and 48 hours.” left out

[7] = among carotenoids; cited from earlier work
[8] = system: prostate cancer; conditions: in vivo; cited from earlier work
[9] = Cis-isomer content of supernatants versus pellets of the isopropanol solution; format: physicochemical
Protocol: The purpose of this preparation was to analyze the effect of isopropanol in solution with lutein, and analyze the effect of adding water to the lutein/isopropanol solution. In this example a solution was prepared by adding 2.51 g of dry cake lutein (lot 082405-08) to 50 ml isopropanol to a flask. The prepared solution was swirled and refluxed at 81° C. for 8 hours.
Samples were taken at 0, 1, 4, 6, and 8 hours to follow the isomerization. At 8 hours the sample was transferred to a 150 ml Erlenmeyer flask and placed in a freezer to cool. When partially cooled, aliquots were taken for precipitation and samples were diluted to 2:1, 1:1, and 1:2 ratios of water:isopropanol. An additional sample was prepared which contained only isopropanol solution. The samples were vortexed and centrifuged. Supernatant and pellets were collected and stored in a 1.5 ml microfuge tube until analysis.

[10] = UV absorption spectra of cis-lutein and trans-lutein; format: physicochemical
Excerpt: FIG. 5 is a graph of the trans-lutein spectrum.
FIG. 6 is a graph of the cis-lutein spectrum.

CC(C=CC=C(C)C=CC1=C(C)CC(O)CC1(C)C)=CC=CC=C(C)C=CC=C(C)C=CC1C(C)=CC(O)CC1(C)C (single isomer, unassigned) [13,13′ cis-isomer, 13,13′ cis-lutein]
stability for extended periods ([1]; Example 3 oils at 72° C., concentration declines after 24 hour sample): did not appear to be highly stable for extended periods | stability ([1]; Example 4 thyme oils at 72° C., 4-48 hours): appears to be stable

CC1=C[C@H](O)CC(C)(C)[C@H]1/C=C/C(C)=C/C=C/C(C)=C/C=C/C=C(C)/C=C/C=C(C)/C=C/C1=C(C)C[C@@H](O)CC1(C)C (single isomer, unassigned) [trans-isomers of lutein, trans-lutein]
stability in crystalline forms ([2]; crystalline forms): stable in crystalline forms

CC1=C(/C=C/C(C)=C/C=C/C(C)=C/C=C/C=C(C)/C=C/C=C(C)/C=C/C2=C(C)C[C@@H](O)CC2(C)C)C(C)(C)C[C@H](O)C1 [Zeaxanithin, zeaxanthin]
reduction in age-related macular degeneration [3]: 57%

CC1=C[C@H](O)CC(C)(C)[C@H]1/C=C/C(C)=C/C=C/C(C)=C/C=C/C=C(C)/C=C/C=C(C)/C=C/C1=C(C)C[C@@H](O)CC1(C)C [lutein dry cake, lutein]
Room temp. sataturation limit (%) ([4]; in acetone): ˜0.45% | Room temp. sataturation limit (%) ([4]; in ethanol): ˜0.3% | Room temp. sataturation limit (%) ([4]; in hexane): <1% | solubility when the solution was heated ([4]; in isopropanol, reflux): increased dramatically | Room temp. sataturation limit (%) ([4]; in isopropanol): ˜0.2% | solubility in corn oil compared with thyme oils ([5]; Example 4, 2 g dry cake in 20 ml oil): least soluble in corn oil | carotenoid concentration observed ([6]; thyme oil, predicted concentration 10%): 7.18%

CC1=C[C@H](O)CC(C)(C)[C@H]1/C=C/C(C)=C/C=C/C(C)=C/C=C/C=C(C)/C=C/C=C(C)/C=C/C1=C(C)C[C@@H](O)CC1(C)C [lutein]
solubility in corn oil compared with the other oils ([5]; Example 3, corn mint, spearmint, peppermint, tea tree and bay oil, 3 mg or 4 mg in 20 ml): less soluble in corn oil than in the other oils | solubility when heated in white thyme oil ([5]; Example 5, 25% w/v, Spectrum white thyme oil): good solubility | time for which lutein was stable (carotenoid content) ([6]; in thyme oil): about 6.5 hours | reduction in age-related macular degeneration [3]: 57%

CC(C)=CCC/C(C)=C/C=C/C(C)=C/C=C/C(C)=C/C=C/C=C(C)/C=C/C=C(C)/C=C/C=C(\C)CCC=C(C)C [lycopene]
oxygen quenching [7]: best carotenoid oxygen quencher | reducing the risk of prostate cancer [8]: active in reducing the risk of prostate cancer

cis-lutein [cis-isomers of lutein]
stability of the cis-isomer formed ([1]; propylene glycol reflux (75° C.), content decreased after four hours): not stable | solubility compared with trans-isomers [9]: higher than trans-isomers | ultraviolet light (UV) absorption compared with trans-isomer lutein [10]: higher | stability upon reflux in ethanol ([2]; reflux in ethanol): easily reverted to the more thermodynamically stable trans-isomers
